Source: PubChem BioAssay (NCI)
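Where inhibition never reached the appropriate level, the endpoint shown equals the highest concentration tested. Otherwise, values were interpolated linearly from a five-concentration, 48-hour dose response in 96-well plates. TGI denotes the concentration required for complete inhibition of growth.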

How the values were obtained:
Experiment in all cases: inhibition of tumour cell growth, NCI panel, 48 h
HCT-116 colon = tested on: HCT-116 colon
PC-3 prostate = tested on: PC-3 prostate
KM20L2 colon = tested on: KM20L2 colon
CCRF-CEM leukemia = tested on: CCRF-CEM leukemia
IGROV1 ovarian = tested on: IGROV1 ovarian
HCC-2998 colon = tested on: HCC-2998 colon
MDA-MB-231 breast = tested on: MDA-MB-231 breast
HS 578T breast = tested on: HS 578T breast
SR leukemia = tested on: SR leukemia
LOX IMVI melanoma = tested on: LOX IMVI melanoma
MCF7 breast = tested on: MCF7 breast
HOP-18 NSCLC = tested on: HOP-18 NSCLC
UACC-257 melanoma = tested on: UACC-257 melanoma
HT29 colon = tested on: HT29 colon
U251 CNS = tested on: U251 CNS
NCI-H460 lung = tested on: NCI-H460 lung
NCI-H23 lung = tested on: NCI-H23 lung
MDA-MB-435 = tested on: MDA-MB-435
DLD-1 colon = tested on: DLD-1 colon
COLO 205 colon = tested on: COLO 205 colon
OVCAR-3 ovarian = tested on: OVCAR-3 ovarian
SK-MEL-2 melanoma = tested on: SK-MEL-2 melanoma
ACHN renal = tested on: ACHN renal
BT-549 breast = tested on: BT-549 breast
HOP-92 NSCLC = tested on: HOP-92 NSCLC
DMS 114 small cell lung = tested on: DMS 114 small cell lung
SF-268 CNS = tested on: SF-268 CNS
RPMI-8226 leukemia = tested on: RPMI-8226 leukemia
OVCAR-8 ovarian = tested on: OVCAR-8 ovarian
SK-MEL-5 melanoma = tested on: SK-MEL-5 melanoma
786-0 renal = tested on: 786-0 renal
A549 NSCLC = tested on: A549 NSCLC
OVCAR-5 ovarian = tested on: OVCAR-5 ovarian
DU-145 prostate = tested on: DU-145 prostate
OVCAR-4 ovarian = tested on: OVCAR-4 ovarian
SNB-75 CNS = tested on: SNB-75 CNS
TK-10 renal = tested on: TK-10 renal
XF 498 CNS = tested on: XF 498 CNS
SNB-78 CNS = tested on: SNB-78 CNS
SNB-19 CNS = tested on: SNB-19 CNS
MDA-N = tested on: MDA-N
HL-60(TB) leukemia = tested on: HL-60(TB) leukemia
SW-620 colon = tested on: SW-620 colon
UO-31 renal = tested on: UO-31 renal
SK-MEL-28 melanoma = tested on: SK-MEL-28 melanoma
SN12C renal = tested on: SN12C renal
NCI/ADR-RES ovarian = tested on: NCI/ADR-RES ovarian
HOP-62 NSCLC = tested on: HOP-62 NSCLC
SF-539 CNS = tested on: SF-539 CNS
SF-295 CNS = tested on: SF-295 CNS
NCI-H522 lung = tested on: NCI-H522 lung
RXF 393 renal = tested on: RXF 393 renal
K-562 leukemia = tested on: K-562 leukemia
UACC-62 melanoma = tested on: UACC-62 melanoma
EKVX NSCLC = tested on: EKVX NSCLC
M14 melanoma = tested on: M14 melanoma
A498 renal = tested on: A498 renal
KM12 colon = tested on: KM12 colon
HCT-15 colon = tested on: HCT-15 colon
CAKI-1 renal = tested on: CAKI-1 renal
MALME-3M melanoma = tested on: MALME-3M melanoma
M19-MEL melanoma = tested on: M19-MEL melanoma
NCI-H226 lung = tested on: NCI-H226 lung
MOLT-4 leukemia = tested on: MOLT-4 leukemia
SK-OV-3 ovarian = tested on: SK-OV-3 ovarian
T-47D breast = tested on: T-47D breast
DMS 273 small cell lung = tested on: DMS 273 small cell lung
LXFL 529 NSCLC = tested on: LXFL 529 NSCLC

Measured: TGI

COc1ccc(/C=C2\C(=O)NC(=O)c3ccccc32)cc1OC
55.8 µM: LOX IMVI melanoma
42.5 µM: XF 498 CNS
> 70.9 µM: K-562 leukemia
67.4 µM: NCI-H460 lung
19.2 µM: DLD-1 colon
> 94.4 µM: SK-MEL-5 melanoma
> 74.7 µM: ACHN renal
44.5 µM: 786-0 renal
80 µM: UO-31 renal
43.1 µM: HCT-116 colon
99.1 µM: MDA-MB-435
76.6 µM: MOLT-4 leukemia
> 66.8 µM: MDA-N
22.9 µM: SF-539 CNS
78.2 µM: UACC-62 melanoma
> 83.2 µM: IGROV1 ovarian
> 69.9 µM: SF-268 CNS
> 90.5 µM: NCI-H23 lung
16.2 µM: HL-60(TB) leukemia
> 93.6 µM: SNB-19 CNS
18.4 µM: DMS 114 small cell lung
> 66.2 µM: SNB-78 CNS
> 26.4 µM: OVCAR-3 ovarian
46.3 µM: SW-620 colon
99 µM: NCI-H226 lung
39.8 µM: HOP-92 NSCLC
> 94.5 µM: SK-MEL-2 melanoma
58.3 µM: HOP-62 NSCLC
18.9 µM: SR leukemia
81 µM: SK-OV-3 ovarian
> 63.5 µM: U251 CNS
> 87.5 µM: SNB-75 CNS
42.2 µM: OVCAR-8 ovarian
47.9 µM: RPMI-8226 leukemia
33.9 µM: RXF 393 renal
62.1 µM: OVCAR-4 ovarian
21.9 µM: CCRF-CEM leukemia
49.6 µM: NCI-H522 lung
not listed: LXFL 529 NSCLC
> 100 µM: all other assays above

Cn1cc(NC(=O)c2cc(NC(=O)CCCCCCCCCC(=O)Nc3cc(C(=O)Nc4cc(C(=O)NCCC(=N)N)n(C)c4)n(C)c3)cn2C)cc1C(=O)NCCC(=N)N
83.5 µM: LOX IMVI melanoma
26.7 µM: MALME-3M melanoma
73.3 µM: ACHN renal
46.2 µM: HT29 colon
93.3 µM: 786-0 renal
82.1 µM: MOLT-4 leukemia
81.3 µM: HOP-62 NSCLC
65.5 µM: HOP-92 NSCLC
89.3 µM: SF-268 CNS
75 µM: SF-295 CNS
98.9 µM: XF 498 CNS
35.1 µM: OVCAR-3 ovarian
57.1 µM: A549 NSCLC
85.9 µM: TK-10 renal
96.1 µM: HOP-18 NSCLC
54.9 µM: RPMI-8226 leukemia
83.1 µM: OVCAR-8 ovarian | EKVX NSCLC
31.7 µM: KM12 colon
62.2 µM: SK-MEL-28 melanoma
69.2 µM: CCRF-CEM leukemia
70.1 µM: M14 melanoma
66.4 µM: OVCAR-5 ovarian
55.4 µM: SNB-75 CNS
not listed: PC-3 prostate | HCC-2998 colon | MDA-MB-231 breast | HS 578T breast | SR leukemia | MCF7 breast | MDA-MB-435 | BT-549 breast | DU-145 prostate | MDA-N | HL-60(TB) leukemia | NCI/ADR-RES ovarian | A498 renal | T-47D breast
> 100 µM: all other assays above

CCCC(=O)Nc1ccc(O)c2c1C1CCCCCC21 (stereo not given)
not listed: PC-3 prostate | IGROV1 ovarian | HCC-2998 colon | MDA-MB-231 breast | HS 578T breast | MCF7 breast | MDA-MB-435 | DLD-1 colon | OVCAR-3 ovarian | BT-549 breast | HOP-92 NSCLC | OVCAR-5 ovarian | DU-145 prostate | MDA-N | NCI/ADR-RES ovarian | SF-539 CNS | A498 renal | CAKI-1 renal | T-47D breast
> 100 µM: all other assays above

COc1ccc(CNc2cnc3ccc(N)cc3n2)cc1OC
not listed: PC-3 prostate | KM20L2 colon | IGROV1 ovarian | MDA-MB-231 breast | HS 578T breast | MCF7 breast | U251 CNS | MDA-MB-435 | BT-549 breast | HOP-92 NSCLC | DU-145 prostate | MDA-N | NCI/ADR-RES ovarian | HOP-62 NSCLC | RXF 393 renal | UACC-62 melanoma | A498 renal | SK-OV-3 ovarian | T-47D breast | LXFL 529 NSCLC
> 100 µM: all other assays above

Cc1ccccc1Cn1nc2ccccc2cc1=O
not listed: PC-3 prostate | MDA-MB-231 breast | HS 578T breast | SR leukemia | MCF7 breast | MDA-MB-435 | BT-549 breast | DU-145 prostate | MDA-N | HL-60(TB) leukemia | NCI/ADR-RES ovarian | NCI-H522 lung | RXF 393 renal | MOLT-4 leukemia | T-47D breast | LXFL 529 NSCLC
> 100 µM: all other assays above
